What was measured:
rats [1] = details: rat, in vivo
rats [2] = details: rat; pretreatment quetiapine 10 mg/kg i.p.; heroin 0.032 mg/kg/infusion i.v., five lever presses per infusion; FIG. 2

COc1ccc2c3c1O[C@H]1C(=O)CC[C@@]4(O)[C@@H](C2)N(C)CC[C@]314 [oxycodone]
average tail flick latency (rats [1]): about 7.3 seconds | median tail flick latency (rats [1]): ~5.8 s

OCCOCCN1CCN(C2=Nc3ccccc3Sc3ccccc32)CC1 [quetiapine]
self-administration (reinforcing effect) of heroin (rats [2]): decreased

Reference: US20190117637A1 (priority 2016, published 2019)
